The results in this text go back to patent US10562859B2, “Aryl sulfonamide compounds as carbonic anhydrase inhibitors and their therapeutic use” (SignalChem LifeSciences Corporation, priority 2015, dated 2020).

In one experiment the target is recombinant human CAIX (Homo sapiens, UniProt Q16790). The experiment is described as follows: Stopped-flow CA-catalyzed CO2 hydration assay, CAIX. Format: biochemical. As to conditions: pH 7.4, inhibitor and enzyme pre-incubated 15 minutes at room temperature. The protocol:
(§1) An Applied Photophysics stopped-flow instrument was used for assaying the CA-catalyzed CO2 hydration activity. […] The CO2 concentrations ranged from 1.7 to 17 mM for the determination of the kinetic parameters and inhibition constants. For each inhibitor, at least six traces of the initial 5-10% of the reaction were used for determining the initial velocity. The uncatalyzed rates were determined in the same manner and subtracted from the total observed rates. Stock solutions of inhibitor (10 mM) were prepared in distilled-deionized water, and dilutions up to 0.01 nM were done thereafter with distilled-deionized water. Inhibitor and enzyme solutions were pre-incubated together for 15 minutes at room temperature prior to assay in order to allow for the formation of the E-I complex. The inhibition constants were obtained by nonlinear least-squares methods using PRISM 3, whereas the kinetic parameters for the uninhibited enzymes were from Lineweaver-Burk plots, and represent the mean from at least three different determinations.

The next experiment addresses recombinant human CAXII (Homo sapiens, UniProt O43570). The experiment can be described thus: Stopped-flow CA-catalyzed CO2 hydration assay, CAXII. In kind it is biochemical. The settings on record: pH 7.4, inhibitor and enzyme pre-incubated 15 minutes at room temperature. The protocol: as §1

recombinant human CAXII, sequence (O43570 25-354): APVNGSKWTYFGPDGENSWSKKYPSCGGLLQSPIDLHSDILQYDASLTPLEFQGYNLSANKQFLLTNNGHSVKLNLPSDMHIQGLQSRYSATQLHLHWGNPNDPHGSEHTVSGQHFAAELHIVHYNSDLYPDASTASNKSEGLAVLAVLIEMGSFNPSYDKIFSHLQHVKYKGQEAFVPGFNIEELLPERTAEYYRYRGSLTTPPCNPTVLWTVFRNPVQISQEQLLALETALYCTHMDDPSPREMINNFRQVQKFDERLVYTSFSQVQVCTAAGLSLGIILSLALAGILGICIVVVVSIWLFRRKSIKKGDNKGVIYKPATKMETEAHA

Consider `NS(=O)(=O)c1ccc(N2CCN(c3cccc(F)c3)C2=O)cc1` [Example 1, 4-(3-(3-fluorophenyl)-2-oxoimidazolidin-1-yl)benzenesulfonamide], for which the “Ki (nM) CAIX” value on recombinant human CAIX was “++ (“++” represents the 100 nM<Ki<10 nM)”. Further, at recombinant human CAXII, the “Ki (nM) CAXII” value is given as “++ (“++” represents the 100 nM<Ki<10 nM)”.

On to `Cc1cc(C)cc(N2CCN(c3ccc(S(N)(=O)=O)cc3)C2=O)c1` [Example 2, 4-(3-(3,5-dimethylphenyl)-2-oxoimidazolidin-1-yl)benzenesulfonamide], for which the “Ki (nM) CAIX” value at recombinant human CAIX is reported as “++ (“++” represents the 100 nM<Ki<10 nM)”. Moreover, the “Ki (nM) CAXII” value at recombinant human CAXII was “++ (“++” represents the 100 nM<Ki<10 nM)”.

`COc1cc(N2CCN(c3ccc(S(N)(=O)=O)cc3)C2=O)cc(OC)c1OC` [Example 3, 4-(2-oxo-3-(3,4,5-trimethoxyphenyl)imidazolidin-1-yl)benzenesulfonamide]: the Ki (usually a dissociation constant, usually derived from enzyme kinetics or from competition with a known ligand) at recombinant human CAIX is below 10 nM. Also, on recombinant human CAXII, the “Ki (nM) CAXII” value is listed as “++ (“++” represents the 100 nM<Ki<10 nM)”.

As for `NS(=O)(=O)c1ccc(N2CCN(C3CCCC3)C2=O)cc1` [Example 4, 4-(3-cyclopentyl-2-oxoimidazolidin-1-yl)benzenesulfonamide], the “Ki (nM) CAIX” value at recombinant human CAIX was “++ (“++” represents the 100 nM<Ki<10 nM)”. For the same compound, the “Ki (nM) CAXII” value at recombinant human CAXII is recorded as “++ (“++” represents the 100 nM<Ki<10 nM)”.

As for `NS(=O)(=O)c1ccc(N2CCN(C3CCCCC3)C2=O)cc1` [Example 5, 4-(3-cyclohexyl-2-oxoimidazolidin-1-yl)benzenesulfonamide], the “Ki (nM) CAIX” value at recombinant human CAIX is “++ (“++” represents the 100 nM<Ki<10 nM)”. The “Ki (nM) CAXII” value on recombinant human CAXII was “++ (“++” represents the 100 nM<Ki<10 nM)”.

On to `NS(=O)(=O)c1ccc(N2CCN(c3ccc(Br)cc3F)C2=O)cc1` [Example 6, 4-(3-(4-bromo-2-fluorophenyl)-2-oxoimidazolidin-1-yl)benzenesulfonamide], for which the “Ki (nM) CAIX” value at recombinant human CAIX is on record as “++ (“++” represents the 100 nM<Ki<10 nM)”. For the same compound, at recombinant human CAXII, the “Ki (nM) CAXII” value was “++ (“++” represents the 100 nM<Ki<10 nM)”.

`NS(=O)(=O)c1ccc(N2CCN(c3ccc(Cl)cc3F)C2=O)cc1` [Example 7, 4-(3-(4-chloro-2-fluorophenyl)-2-oxoimidazolidin-1-yl)benzenesulfonamide]: at recombinant human CAIX, the Ki was below 10 nM. Moreover, the “Ki (nM) CAXII” value at recombinant human CAXII is “++ (“++” represents the 100 nM<Ki<10 nM)”.

As to `NS(=O)(=O)c1ccc(N2CCN(c3ccc(C(F)(F)F)cc3)C2=O)cc1` [Example 8, 4-(2-oxo-3-(4-(trifluoromethyl)phenyl)imidazolidin-1-yl)benzenesulfonamide], the Ki at recombinant human CAIX and on recombinant human CAXII was below 10 nM each time.

Regarding `NS(=O)(=O)c1ccc(N2CCN(Cc3ccc(F)cc3)C2=O)cc1` [Example 9, 4-(3-(4-fluorobenzyl)-2-oxoimidazolidin-1-yl)benzenesulfonamide], the “Ki (nM) CAIX” value at recombinant human CAIX is reported as “++ (“++” represents the 100 nM<Ki<10 nM)”. Also, the “Ki (nM) CAXII” value at recombinant human CAXII is recorded as “++ (“++” represents the 100 nM<Ki<10 nM)”.

Regarding `NS(=O)(=O)c1ccc(N2CCN(CC3CC3)C2=O)cc1` [Example 10, 4-(3-(cyclopropylmethyl)-2-oxoimidazolidin-1-yl)benzenesulfonamide], the Ki at recombinant human CAIX and on recombinant human CAXII was below 10 nM in each case.

As to `CC(C)c1ccccc1N1CCN(c2ccc(S(N)(=O)=O)cc2)C1=O` [Example 11, 4-(3-(2-isopropylphenyl)-2-oxoimidazolidin-1-yl)benzenesulfonamide], the Ki at recombinant human CAIX and on recombinant human CAXII was below 10 nM throughout.

In the case of `NS(=O)(=O)c1ccc(N2CCN(c3cc(C(F)(F)F)ccc3Cl)C2=O)cc1` [Example 12, 4-(3-(2-chloro-5-(trifluoromethyl)phenyl)-2-oxoimidazolidin-1-yl)benzenesulfonamide], the inhibition constant (Ki) on recombinant human CAIX and on recombinant human CAXII was below 10 nM each time.

`NS(=O)(=O)c1ccc(N2CCN(c3cc(C(F)(F)F)ccc3F)C2=O)cc1` [Example 13, 4-(3-(2-fluoro-5-(trifluoromethyl)phenyl)-2-oxoimidazolidin-1-yl)benzenesulfonamide]: the Ki on recombinant human CAIX and at recombinant human CAXII was below 10 nM throughout.

As for `COCCOc1ccc(N2CCN(c3ccc(S(N)(=O)=O)cc3)C2=O)cc1` [Example 14, 4-(3-(4-(2-methoxyethoxy)phenyl)-2-oxoimidazolidin-1-yl)benzenesulfonamide], the inhibition constant (Ki) at recombinant human CAIX and at recombinant human CAXII was below 10 nM in each case.

In the case of `CCCCOc1ccc(N2CCN(c3ccc(S(N)(=O)=O)cc3)C2=O)cc1` [Example 15, 4-(3-(4-butoxyphenyl)-2-oxoimidazolidin-1-yl)benzenesulfonamide], the Ki on recombinant human CAIX is below 10 nM. In addition, on recombinant human CAXII, the “Ki (nM) CAXII” value is reported as “++ (“++” represents the 100 nM<Ki<10 nM)”.

In the case of `N#Cc1ccc(N2CCN(c3ccc(S(N)(=O)=O)cc3)C2=O)cc1` [Example 16, 4-(3-(4-cyanophenyl)-2-oxoimidazolidin-1-yl)benzenesulfonamide], the Ki on recombinant human CAIX and on recombinant human CAXII was below 10 nM each time.

In the case of `CC(=O)c1ccc(N2CCN(c3ccc(S(N)(=O)=O)cc3)C2=O)cc1` [Example 17, 4-(3-(4-acetylphenyl)-2-oxoimidazolidin-1-yl)benzenesulfonamide], the Ki on recombinant human CAIX and at recombinant human CAXII was below 10 nM throughout.

Consider `NS(=O)(=O)c1ccc(N2CCN(c3ccc(F)cc3)C2=O)cc1` [Example 21, 4-(3-(4-fluorophenyl)-2-oxoimidazolidin-1-yl)benzenesulfonamide], for which the Ki at recombinant human CAIX is below 10 nM. Further, the “Ki (nM) CAXII” value at recombinant human CAXII is “++ (“++” represents the 100 nM<Ki<10 nM)”.

As for `NS(=O)(=O)c1ccc(N2CCN(c3ccc(F)c(Cl)c3)C2=O)cc1` [Example 22, 4-(3-(3-chloro-4-fluorophenyl)-2-oxoimidazolidin-1-yl)benzenesulfonamide], the Ki at recombinant human CAIX was below 10 nM. Besides, on recombinant human CAXII, the “Ki (nM) CAXII” value is on record as “++ (“++” represents the 100 nM<Ki<10 nM)”.

`NS(=O)(=O)c1ccc(N2CCN(c3cc(F)cc(F)c3)C2=O)cc1` [Example 23, 4-(3-(3,5-difluorophenyl)-2-oxoimidazolidin-1-yl)benzenesulfonamide]: the inhibitory constant (Ki) on recombinant human CAIX and at recombinant human CAXII was below 10 nM each time.

Take `NS(=O)(=O)c1ccc(N2CCN(c3ccc(F)c(F)c3)C2=O)cc1` [Example 24, 4-(3-(3,4-difluorophenyl)-2-oxoimidazolidin-1-yl)benzenesulfonamide]: the Ki on recombinant human CAIX was below 10 nM. Also, the “Ki (nM) CAXII” value on recombinant human CAXII is recorded as “++ (“++” represents the 100 nM<Ki<10 nM)”.

Take `COc1ccc(N2CCN(c3ccc(S(N)(=O)=O)cc3)C2=O)c(F)c1` [Example 25, 4-(3-(2-fluoro-4-methoxyphenyl)-2-oxoimidazolidin-1-yl)benzenesulfonamide]: the Ki at recombinant human CAIX was below 10 nM. Besides, the “Ki (nM) CAXII” value at recombinant human CAXII is reported as “++ (“++” represents the 100 nM<Ki<10 nM)”.

With `CCCCOc1ccc(N2CCN(c3ccc(S(N)(=O)=O)cc3)C2=O)c(F)c1` [Example 26, 4-(3-(4-butoxy-2-fluorophenyl)-2-oxoimidazolidin-1-yl)benzenesulfonamide], the Ki on recombinant human CAIX is below 10 nM. The “Ki (nM) CAXII” value on recombinant human CAXII is recorded as “++ (“++” represents the 100 nM<Ki<10 nM)”.

As to `NS(=O)(=O)c1ccc(N2CCN(c3ccc(Cl)c(F)c3)C2=O)cc1` [Example 27, 4-(3-(4-chloro-3-fluorophenyl)-2-oxoimidazolidin-1-yl)benzenesulfonamide], on recombinant human CAIX, the Ki was below 10 nM. In addition, on recombinant human CAXII, the “Ki (nM) CAXII” value is reported as “++ (“++” represents the 100 nM<Ki<10 nM)”.

In the case of `NS(=O)(=O)c1ccc(N2CCN(c3ccc(F)cn3)C2=O)cc1` [Example 28.1, 4-(3-(5-fluoropyridin-2-yl)-2-oxoimidazolidin-1-yl)benzenesulfonamide], the Ki at recombinant human CAIX and at recombinant human CAXII was above 100000 nM each time.

`CN1CCN(c2ccc(N3CCN(c4ccc(S(N)(=O)=O)cc4)C3=O)c(F)c2)CC1` [Example 28.2, 4-(3-(2-fluoro-4-(4-methylpiperazin-1-yl)phenyl)-2-oxoimidazolidin-1-yl)benzenesulfonamide]: the values for the inhibition constant Ki on recombinant human CAIX and on recombinant human CAXII were above 100000 nM and below 10 nM, respectively.

Turning to `NS(=O)(=O)c1ccc(N2CCN(c3ccc(N4CCOCC4)cc3F)C2=O)cc1` [Example 28.3, 4-(3-(2-fluoro-4-morpholinophenyl)-2-oxoimidazolidin-1-yl)benzenesulfonamide], the Ki on recombinant human CAIX and at recombinant human CAXII was below 10 nM each time.
